Measurements published in article PMC4791210 (International immunopharmacology, 2015).

Key:
human neutrophils = experiment: Direct activation of Ca2+ flux in human neutrophils; type: cell-based; settings: Neutrophil, read-out: Human Neutrophils Activation (EC50, μM)
FPR1 [1] = target: T1, FPR1 (Homo sapiens, UniProt P21462); experiment: Direct activation of Ca2+ flux in FPR1 transfected HL-60 cells; type: cell-based
T1 sequence (P21462 1-350): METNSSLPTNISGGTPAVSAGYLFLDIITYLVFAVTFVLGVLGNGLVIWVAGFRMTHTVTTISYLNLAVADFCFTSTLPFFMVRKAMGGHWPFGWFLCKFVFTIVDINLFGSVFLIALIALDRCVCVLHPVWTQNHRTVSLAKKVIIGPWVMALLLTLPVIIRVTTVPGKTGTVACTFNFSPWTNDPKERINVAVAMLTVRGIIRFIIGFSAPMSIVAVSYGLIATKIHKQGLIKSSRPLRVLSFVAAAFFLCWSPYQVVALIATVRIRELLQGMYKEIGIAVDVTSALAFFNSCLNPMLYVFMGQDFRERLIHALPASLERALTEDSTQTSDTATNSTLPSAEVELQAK

FPR1 [2] = settings: high concentrations; cited from earlier work
human monocytes = settings: read-out: IC50, inhibition of fMLF-induced Ca2+ flux in human monocytes; cited from earlier work
FPR1 [3] = target: T1, FPR1; settings: cited from earlier work

EC50 (human neutrophils) [µM] | EC50 (FPR1 [1]) [µM] | Structure (SMILES) | Concentrations that antagonize FPR1 and inhibit 3H-fMLF binding (FPR1 [2]) [µM] | IC50 (human monocytes) [µM] | Binding of fluorescent FPR1 ligand in human neutrophils (FPR1 [3])
49.5 ± 5.1 | 40.3 ± 4.5 | C[C@H](CCC(=O)O)[C@H]1CC[C@H]2[C@@H]3[C@H](O)C[C@@H]4C[C@H](O)CC[C@]4(C)[C@H]3CC[C@]12C [Chenodeoxycholic acid (CDCA), Chenodeoxycholic acid] | ≥ 100 | 40 | 
 |  | CC(=O)OC1COC(OC2C(O)C(C)OC(OC3C(OC4CCC5(C)C(CCC6(C)C5CC=C5C7CC(C)(C)CCC7(C(=O)O)CCC56C)C4(C)CO)OCC(O)C3O)C2O)C(O)C1OC(C)=O [SMG-1, hederagenin 3-O-(3,4-O-di-acetyl-α-L-arabinopyranoside)-(1→3)-α-l-rhamnopyranosyl-(1→2)-α-l-arabinopyranoside] |  |  | blocked binding
